# Experimental data published in patent US20160287553A1, “TRANSLATION INHIBITORS IN HIGH-DOSE CHEMO- AND/OR HIGH-DOSE RADIOTHERAPY” (DEUTSCHES KREBSFORSCHUNGSZENTRUM, priority 2013, published 2016).
# Entries after “also recorded” stand apart in the source; their conditions may differ.
# How the values were obtained:
# Peripheral blood T cells = assay: Etoposide-induced apoptotic cell death of T cells (DNA fragmentation, AnnexinV, FSC/SSC)
# Method: The human malignant cell lines EU-3 (acute lymphoblastic leukemia), DND-41 (T cell leukemia), Hut-78 (T cell lymphoma), SKW6.4 (B cell leukemia), Reh (acute lymphoblastic leukemia), IM-9 (Chronic myeloid leukemia), HL-60 (promyelocytic leukemia), L1236 (Hodgkin's lymphoma) and NCI-H209 (small cell lung cancer) were cultured at 37° C. with 5% CO2 in RPMI-1640 medium (Sigma-Aldrich, Munich, Germany) supplemented with 10% FCS, 100 U/ml Penicillin (Sigma-Aldrich, Munich, Germany) and 100 μg/ml Streptamycin (Sigma-Aldrich, Munich, Germany) SCLC-21H cells (small cell lung cancer) were cultured in DMEM medium (Sigma-Aldrich, Munich, Germany) supplemented with 10% FCS. Peripheral blood T lymphocytes were isolated as previously described (Klas et al., Int Immunol. 1993; 5: 625-630). B lymphocytes and NK cells were isolated by magnetic activated cell sorting using “B cell isolation kit II” (Miltenyi Biotech, Bergisch Gladbach, Germany) and “NK cell isolation kit, human” (Miltenyi Biotech, Bergisch Gladbach, Germany), respectively, according to the manufacturer's instructions. Human neutrophils were separated from peripheral blood mononuclear cells by Ficoll-Paque density centrifugation, followed by incubation in 1.05% dextran for 30 min at room temperature. Remaining erythrocytes were lysed by resuspension in ice-cold 0.2% sodium chloride solution. After 1 min ice-cold 1.6% sodium-chloride solution was added and lysis was stopped by addition of PBS and neutrophils were resuspended in medium at a concentration of 2×10^6 cells/ml. Human primary cardiomyocytes were purchased from PromoCell (Heidelberg, Germany) and cultured in Myocyte Growth Medium (PromoCell, Heidelberg, Germany). Remaining primary human cells were cultured in RPMI-1640 medium with the same conditions described above.
# Apoptotic cell death was determined by AnnexinV staining, cellular forward scatter/side scatter (FSC/SSC) profile, or DNA fragmentation. For AnnexinV staining, 2×10^5 cells were treated with different drugs for indicated time periods, washed with AnnexinV binding buffer (0.01 M Hepes, 0.14 M NaCl, 2.5 mM CaCl2), and stained with AnnexinV-FITC antibody (Immunotools, Friesoythe, Germany) and 7-amino-actinomycin D (Sigma-Aldrich, Munich, Germany) for 30 min at 4° C. The amount of AnnexinV positive cells was determined by FACS measurement. DNA fragmentation was determined according to the method of Nicoletti (Nicoletti et al., J Immunol Methods. 1991; 139: 271-279). Briefly, 2×10^5 cells were treated as indicated, washed with PBS and lysed in Nicoletti buffer (0.1% sodium citrate, 0.1% Triton X-100, 50 μg/ml propidium iodide). DNA fragmentation was determined by FACS. Apoptosis-like cells were determined by forward scatter and side scatter (FSC/SSC) index. Specific DNA fragmentation/specific AnnexinV positive cells/specific apoptosis was calculated as follows: (percentage of experimental DNA fragmentation (or Annexin V positive cells or apoptosis)−percentage of spontaneous DNA fragmentation (or Annexin V positive cells or apoptosis)/(100−percentage of spontaneous DNA fragmentation (or Annexin V positive cells or apoptosis))×100.
# [1] = system: protein synthesis in T cells; assay: Translation assay: [35S]methionine incorporation in T cells; type: cell-based, human; conditions: T cells (FIG. 6b)
# Method: The relative amount of protein synthesis was determined by measuring the amount of incorporation of ^35S-methionine into the protein. Briefly, cells were pre-cultured in methionine-free medium (supplemented with 10% dialyzed FCS) for 3 h, followed by incubation with 3.5 μCi of ^35S-methionine-labeling mix (PerkinElmer, Waltham, Mass., USA) per 8×10^5 cells for 6 h as indicated. After the treatment, cells were washed twice with ice-cold PBS and lysed in RIPA buffer. 50 μl of each lysate were added to 1 ml of Liquid Scintillation Cocktail solution (Beckman Coulter, Brea, Calif., USA) and the amount of incorporated radioactivity was determined by liquid scintillation counting.
# Roc-A has been well documented to inhibit protein translation (Polier et al., Chem Biol. 2012; 19: 1093-1104; Sadlish et al., ACS Chem Biol. 2013; doi:10.1021/cb400158t; Bleumink et al., Cell Death Differ. 2011; 18: 362-370; Cencic et al., PloS one. 2009; 4: e5223). Thus, we expected that Roc-A-mediated suppression of genotoxin-induced p53 upregulation may be regulated by inhibition of p53 protein synthesis.
# NK cells = assay: Etoposide-induced apoptosis in NK cells; type: cell-based, human; conditions: NK cells (FIG. 1c)
# Method: (§1) DNA fragmentation was determined by FACS.
# Next, we asked whether Roc-A could also protect other normal primary cells from DNA damage-induced toxicity. To address this question, we examined the protective effect of Roc-A on Etoposide-treated human peripheral blood B cells, NK cells, neutrophils, cardiomyocytes and murine hematopoietic stem and progenitor cells (HSPCs).
# malignant cells = assay: Fold change in cell death on raising the Etoposide dose, malignant cells (FIG. 9a-b); type: cell-based; conditions: 75 nM Roc-A in parallel to Etoposide, 6.25 μM to 50 μM, 24 h
# Method: (a) Cells from (b) were grouped into malignant and non-malignant cells. Shown are means of three independent experiments. Abbreviations; HSPCs=hematopoietic stem and progenitor cells. (c-d) Malignant and non-malignant cells were exposed to ionizing radiation (IR) in the presence of 75 nM Roc-A or solvent (DMSO) and cell death was determined after 24 h by DNA fragmentation. Depicted is the fold-change in cell death that was measured when doses of IR were increased from 2 Gy to 10 Gy. (c) Cells from (d) were grouped into malignant and non-malignant cells. Shown are means of three independent experiments.
# as §1
# Roc-A specifically prevents the cause of chemotherapeutic and radiation-induced side-effects, i.e., the death of healthy cells. […] Consequently, high-dose therapy is not possible, as side effects would be too high.
# [2] = system: IM-9 (Chronic myeloid leukemia), WT p53; assay: Etoposide-induced cell death in IM-9; type: cell-based, human; conditions: IM-9 (FIG. 5b)
# Method: as §1
# Since Roc-A-mediated protection of non-malignant cells from DNA-damage-induced cell death is largely p53-dependent, we predicted that Roc-A would not protect cancer cells which have non-functional p53. […] 1997; 19: 243-253), Reh (Zhou et al, loc cit.), SKW6.4 (Barbarotto et al., J Cell Biochem. 2008; 104: 595-605) and NCI-H209 (Fujita et al. Int J Oncol. 1999; 15: 927-934) which have a WT p53 protein.
smiles,measurement,setting,value
"COc1ccc([C@@]23Oc4cc(OC)cc(OC)c4[C@]2(O)[C@H](O)[C@H](C(=O)N(C)C)[C@H]3c2ccccc2)cc1 [Roc-A, (1R,2R,3S,3aR,8bS)-1,8b-dihydroxy-6,8-dimethoxy-3a-(4-methoxyphenyl)-N,N-dimethyl-3-phenyl-2,3-dihydro-1H-cyclopenta[b][1]benzofuran-2-carboxamide]",Protection of normal T cells from Etoposide-induced cell death by Roc-derivatives,"Peripheral blood T cells; 50 μM Etoposide, 75 nM Roc-derivative, 24 h (FIG. 6b)",different levels of protection
same,"Toxicity of Etoposide, kinetic analysis","Peripheral blood T cells; 50 μM Etoposide, different concentrations of Roc-A, indicated time-periods (FIG. 1a middle)",could reduce the toxicity of Etoposide at all measured time points
same,Reduction of Etoposide-induced cell death of normal T cells,"Peripheral blood T cells; 24 h, increasing concentrations of Etoposide, different concentrations of Roc-A, dose-dependent (FIG. 1a left, FIG. 7)",more than 50%
same,Chemo-protective effect when Roc-A is administered after Etoposide,Peripheral blood T cells; Roc-A added 2 and 4.5 h after Etoposide (50 μM) (FIG. 1a right),chemo-protective effect could be even seen
same,Protection of T cells from Etoposide-induced apoptotic cell death,"Peripheral blood T cells; Roc-A with Etoposide, FIG. 1a, FIG. 7",protects T cells from Etoposide-induced apoptotic cell death in a dose- and time-dependent manner; also recorded: reduces Etoposide-induced apoptosis in T cells
same,Inhibition of [35S]methionine incorporation (protein translation),[1],inhibited [^35S]methionine incorporation at different degrees
same,Protection against Etoposide-induced apoptosis,NK cells,protected
same,Change in cell death on increased Etoposide doses with Roc-A,malignant cells,increased cell death in malignant cells
same,Protection against Etoposide-induced cell death,[2],protected by Roc-A from Etoposide-induced cell death but to a lesser extent than non-malignant cells
